Earlier results as cited in paper PMC4221044, “Antimicrobial GL13K Peptide Coatings Killed and Ruptured the Wall of Streptococcus gordonii and Prevented Formation and Growth of Biofilms” (PLoS ONE, 2014).

Columns and labels:
[1] = test system: Pseudonomas aeruginosa biofilms; details: 100 µg/ml GL13K
Excerpt: (§1) Functionalization of titanium surfaces with coatings made of antimicrobial agents has recently been explored to inhibit peri-implant infections. The coatings can contain nanoparticles of pure elements, [5]; sanitizing agents and disinfectants; and antibiotics as well as antimicrobial peptides. Gentamicin [7]–[9] and Vancomycin [10]–[13] have been coated on Ti surfaces for protecting from infection dental and orthopedic implants.

Streptococcus gordonii = details: 100 µg/ml GL13K
Excerpt: as §1

[2] = test system: planktonic Pseudonomas aeruginosa; details: peptide in solution
Excerpt: as §1

For “GKIIKLKASLKLL-NH2 [GL13K, antimicrobial peptide …-NH2 derived from the human salivary protein BPIFA2]”, the reduction of biofilms [1] is listed as “three orders of magnitude”, the bacteria killed (Streptococcus gordonii) is listed as 100% and the MIC [2] is listed as 8 µg/mL.
